In the supplement of paper PMC11208160:

Test: recombinant UMI read abundance after kanamycin selection (control-corrected) (log10(CPM+1)); higher = more efficient recombination; extreme values may be limits of the assay; sequences stand for … in AGTGCAGAGAAAATCGGCCAGTTTTCTCTGCCTGCAGTCCGCATGCCGTGGGACCCCTTGGGTTCTAACCTGTTGCCTAGATTTATGCAGCGGACTGCCTTTCTCCCAAAGTGATAAACCGG…AGGTTGGTTTCACT; site = the 11-nt donor
Procedure, shortened: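 Reported values are log10(CPM+1) from a pooled Escherichia coli screen of donor and donor-binding-loop pairs for the IS621 bridge recombinase. Selection used IPTG (0.07 mM) plus kanamycin, against unselected plating, each in two replicates. Recombinant UMIs were amplified across the donor–target junction, sequenced, converted to CPM, averaged over replicates and scaled by control-derived factors.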
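Also: IS621 bridge recombinase in Escherichia coli cells against a fixed T5 target plasmid.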

| Sequence | recombinant UMI read abundance (log10) |
| --- | --- |
| GTGCGTGCATGGACCGGTTTTCCCGGTAATCCGTATTTGGT (site GTGCATGCTAC) | 0.26 |
| GTGCGTGCATGGACCGGTTTTCCCGGTAATCCGTATTTGGT (site GTGCCTGCTAC) | 0.00736 |
| GTGCGTGCATGGACCGGTTTTCCCGGTAATCCGTATTTGGT (site GTGCGTGCTAC) | 0.346 |
| GTGCGTGCATGGACCGGTTTTCCCGGTAATCCGTATTTGGT (site GTGCTTGCTAC) | 0.00274 |
| GTGCTCCCATGGACCGGTTTTCCCGGTAATCCGTATTTGAC (site GTGCTCCCTGT) | 1.9 |
| GTGGACGCATGGACCGGTTTTCCCGGTAATCCGTATTTGAG (site GTGGACGCTCT) | 1.56 |
| GTGGACGCATGGACCGGTTTTCCCGGTAATCCGTATTTGTG (site GTGGAAGCTCA) | 1.41 |
| GTGGACGCATGGACCGGTTTTCCCGGTAATCCGTATTTGTG (site GTGGACGCTCA) | 1.56 |
| GTGGACGCATGGACCGGTTTTCCCGGTAATCCGTATTTGTG (site GTGGAGGCTCA) | 0.0785 |
| GTGGACGCATGGACCGGTTTTCCCGGTAATCCGTATTTGTG (site GTGGATGCTCA) | 0.653 |
| GTGGAGACATGGACCGGTTTTCCCGGTAATCCGTATTTGTG (site GTGGAGACTCA) | 1.59 |
| GTGGAGACATGGACCGGTTTTCCCGGTAATCCGTATTTGTG (site GTGGAGCCTCA) | 0.0116 |
| GTGGAGACATGGACCGGTTTTCCCGGTAATCCGTATTTGTG (site GTGGAGGCTCA) | 1.4 |
| GTGGAGACATGGACCGGTTTTCCCGGTAATCCGTATTTGTG (site GTGGAGTCTCA) | 1.99 |
| GTGGAGCCATGGACCGGTTTTCCCGGTAATCCGTATTTGTG (site GTGGAGACTCA) | 0.00935 |
| GTGGAGCCATGGACCGGTTTTCCCGGTAATCCGTATTTGTG (site GTGGAGCCTCA) | 0.484 |
| GTGGAGCCATGGACCGGTTTTCCCGGTAATCCGTATTTGTG (site GTGGAGGCTCA) | 0.00706 |
| GTGGAGCCATGGACCGGTTTTCCCGGTAATCCGTATTTGTG (site GTGGAGTCTCA) | 1.74 |
| GTGGAGGCATGGACCGGTTTTCCCGGTAATCCGTATTTGAG (site GTGGAGGCTCA) | 0.00393 |
| GTGGAGGCATGGACCGGTTTTCCCGGTAATCCGTATTTGAG (site GTGGAGGCTCC) | 0.297 |
| GTGGAGGCATGGACCGGTTTTCCCGGTAATCCGTATTTGAG (site GTGGAGGCTCG) | 0.681 |
| GTGGAGGCATGGACCGGTTTTCCCGGTAATCCGTATTTGAG (site GTGGAGGCTCT) | 1.57 |
| GTGGAGGCATGGACCGGTTTTCCCGGTAATCCGTATTTGGG (site GTGGAGGCTCA) | 0.238 |

| Sequence | recombinant UMI read abundance (log10) |
| --- | --- |
| GTGGAGGCATGGACCGGTTTTCCCGGTAATCCGTATTTGGG (site GTGGAGGCTCC) | 0.954 |
| GTGGAGGCATGGACCGGTTTTCCCGGTAATCCGTATTTGGG (site GTGGAGGCTCG) | 0.597 |
| GTGGAGGCATGGACCGGTTTTCCCGGTAATCCGTATTTGGG (site GTGGAGGCTCT) | 0.567 |
| GTGGAGGCATGGACCGGTTTTCCCGGTAATCCGTATTTGTA (site GTGGAGGCTAA) | 0.557 |
| GTGGAGGCATGGACCGGTTTTCCCGGTAATCCGTATTTGTA (site GTGGAGGCTCA) | 0.682 |
| GTGGAGGCATGGACCGGTTTTCCCGGTAATCCGTATTTGTA (site GTGGAGGCTGA) | 0.943 |
| GTGGAGGCATGGACCGGTTTTCCCGGTAATCCGTATTTGTA (site GTGGAGGCTTA) | 2.86 |
| GTGGATACATGGACCGGTTTTCCCGGTAATCCGTATTTGCA (site GTGGATACTTG) | 1.84 |
| GTGGCCTCATGGACCGGTTTTCCCGGTAATCCGTATTTGGA (site GTGGCCTCTTC) | 1.43 |
| GTGGCTGCATGGACCGGTTTTCCCGGTAATCCGTATTTGCC (site GTGGCTGCTGG) | 2.44 |
| GTGGGCGCATGGACCGGTTTTCCCGGTAATCCGTATTTGAC (site GTGGGCGCTGT) | 2.43 |
| GTGGGTACATGGACCGGTTTTCCCGGTAATCCGTATTTGTG (site GTGGGTACTCA) | 1.46 |
| GTGGGTTCATGGACCGGTTTTCCCGGTAATCCGTATTTGGC (site GTGGGTTCTGC) | 2.19 |
| GTGGTCGCATGGACCGGTTTTCCCGGTAATCCGTATTTGCG (site GTAGTCGCTCG) | 0.519 |
| GTGGTCGCATGGACCGGTTTTCCCGGTAATCCGTATTTGCG (site GTCGTCGCTCG) | 0.0116 |
| GTGGTCGCATGGACCGGTTTTCCCGGTAATCCGTATTTGCG (site GTGGTCGCTCG) | 1.15 |
| GTGGTCGCATGGACCGGTTTTCCCGGTAATCCGTATTTGCG (site GTTGTCGCTCG) | 0.00973 |
| GTGTAAACATGGACCGGTTTTCCCGGTAATCCGTATTTGCT (site GTGTAAACTAG) | 2.89 |
| GTGTATACATGGACCGGTTTTCCCGGTAATCCGTATTTGCT (site GTGTATACTAG) | 2.44 |
| GTGTCCCCATGGACCGGTTTTCCCGGTAATCCGTATTTGGA (site GTGTCCCCTTC) | 0.0113 |
| GTGTGCACATGGACCGGTTTTCCCGGTAATCCGTATTTGTA (site GTATGCACTTA) | 1.48 |
| GTGTGCACATGGACCGGTTTTCCCGGTAATCCGTATTTGTA (site GTCTGCACTTA) | 0.0255 |
| GTGTGCACATGGACCGGTTTTCCCGGTAATCCGTATTTGTA (site GTGTGCACTTA) | 2.15 |

| Sequence | recombinant UMI read abundance (log10) |
| --- | --- |
| GTGTGCACATGGACCGGTTTTCCCGGTAATCCGTATTTGTA (site GTTTGCACTTA) | 0.00854 |
| GTGTTCTCATGGACCGGTTTTCCCGGTAATCCGTATTTGAA (site GTGTTCTCTTT) | 2.52 |
| GTTAAAACATGGACCGGTTTTCCCGGTAATCCGTATTTGGC (site GTTAAAACTGC) | 0 |
| GTTAAAACATGGACCGGTTTTCCCGGTAATCCGTATTTGGC (site GTTACAACTGC) | 0 |
| GTTAAAACATGGACCGGTTTTCCCGGTAATCCGTATTTGGC (site GTTAGAACTGC) | 0.02 |
| GTTAAAACATGGACCGGTTTTCCCGGTAATCCGTATTTGGC (site GTTATAACTGC) | 0 |
| GTTAAATCATGGACCGGTTTTCCCGGTAATCCGTATTTGAA (site GTTAAATCTTT) | 1.62 |
| GTTAAGGCATGGACCGGTTTTCCCGGTAATCCGTATTTGTC (site GTTAAGGCTGA) | 2.82 |
| GTTACACCATGGACCGGTTTTCCCGGTAATCCGTATTTGAA (site GTTACACCTTT) | 0.0186 |
| GTTAGAACATGGACCGGTTTTCCCGGTAATCCGTATTTGCC (site GTTAGAACTGA) | 0 |
| GTTAGAACATGGACCGGTTTTCCCGGTAATCCGTATTTGCC (site GTTAGAACTGC) | 0 |
| GTTAGAACATGGACCGGTTTTCCCGGTAATCCGTATTTGCC (site GTTAGAACTGG) | 0 |
| GTTAGAACATGGACCGGTTTTCCCGGTAATCCGTATTTGCC (site GTTAGAACTGT) | 0 |
| GTTAGAACATGGACCGGTTTTCCCGGTAATCCGTATTTGGG (site GTTAGAACTAC) | 0 |
| GTTAGAACATGGACCGGTTTTCCCGGTAATCCGTATTTGGG (site GTTAGAACTCC) | 0.172 |
| GTTAGAACATGGACCGGTTTTCCCGGTAATCCGTATTTGGG (site GTTAGAACTGC) | 0 |
| GTTAGAACATGGACCGGTTTTCCCGGTAATCCGTATTTGGG (site GTTAGAACTTC) | 0.00779 |
| GTTAGAACATGGACCGGTTTTCCCGGTAATCCGTATTTGTC (site GTTAGAACTGA) | 1.52 |
| GTTAGAACATGGACCGGTTTTCCCGGTAATCCGTATTTGTC (site GTTAGAACTGC) | 0 |
| GTTAGAACATGGACCGGTTTTCCCGGTAATCCGTATTTGTC (site GTTAGAACTGG) | 0 |
| GTTAGAACATGGACCGGTTTTCCCGGTAATCCGTATTTGTC (site GTTAGAACTGT) | 0.013 |
| GTTAGAGCATGGACCGGTTTTCCCGGTAATCCGTATTTGAC (site GTTAGAGCTGT) | 2.46 |
